The numbers were not newly measured in paper PMC8796384, “Plasma protein binding prediction focusing on residue-level features and circularity of cyclic peptides by deep learning” (Bioinformatics, 2021), which cites them from elsewhere.

Read-outs that look alike come from different tables or passages of the source.

In series [1] the test system is plasma proteins.
From the text: The external test (DrugBank) data contained some structurally similar pairs.
Series [2] deals with plasma proteins. The conditions noted are these: whole-peptide descriptor model trained on small molecules; ref Tajimi et al. (2018).
The mark [3] stands for this setting: experimental %PPB, below 50% rounded to 50%, above 95% rounded to 95%, DrugBank dataset collected by Tajimi et al. (2018), ref Wishart et al., 2018.

As for Polymyxin B, the “%PPB50-95” value in the series on plasma proteins [1] is reported as 85.5%.
Take Caspofungin: the “%PPB50-95” value in the series on plasma proteins [1] (setting [3]) is reported as 95%.
As to Micafungin, the “%PPB50-95” value with plasma proteins [1] (setting [3]) is on record as 95%.
In the case of Lanreotide, the “%PPB50-95” value with plasma proteins [1] (setting [3]) is listed as 81%.
Anidulafungin: the “%PPB50-95” value in the series on plasma proteins [1] (setting [3]) is reported as 84%.
As to daptomycin, the “predicted %PPB value by Tajimi” value with plasma proteins [2] was 49%.
For Pasireotide, in the series on plasma proteins [1], the “%PPB50-95” value is on record as 88%.
